Experimental data: patent publication US10921327B2, “Probes for quantitative imaging of thiols in various environments” (Baylor College of Medicine, priority 2014, dated 2021)
Like-named read-outs stand apart in the source and are kept apart here.

Legend:
[1] = target: BSA (Bos taurus, UniProt P02769); assay: Reaction specificity of TQ Green: BSA; design: species or system bovine; conditions: 5 mM BSA, PBS pH 7.4
Method: (§1) For clarity, data points for TQ Green reaction with BSA, Cysteine, and PBS were offset by 0.1 units from each other on the y axis. Data points represent the absorbance of reaction mixtures of TQ Green (32 μM) with cysteine (100 μM, blue), BSA (5 mM, green), GSH (20 mM red) and water (black) in PBS (pH 7.4) at 480 nm, the maximum absorption wavelength for TQ Green.
Proteins containing free thiol groups may also react with TQ Green to affect the measurement of GSH levels. On average, the protein concentration inside cells is 3×10^6 molecules/μm^3, which corresponds to a concentration of 5 mM. Assuming there is one free thiol on each protein molecule, 5 mM of bovine serum albumin (BSA) solution should reasonably mimic intracellular proteins because a) BSA has a free thiol on its surface; and b) the molecular weight of BSA (65 kDa) is close to the average molecular weight of intracellular proteins (˜50 kDa). […] Through these experiments and analyses, Applicants can conclude that TQ Green has good specificity towards GSH under physiological conditions.

[2] = Solubility; assay type: physicochemical; conditions: PBS buffer, aqueous buffer
[3] = Reaction specificity of TQ Green: cysteine; conditions: 0.1 mM cysteine, within 2 hours, PBS pH 7.4
Method: as §1
Free cysteine and the surface exposed cysteine residues on proteins inside cells could potentially compete with GSH in TQ Green reactions. It is known that, in contrast to the 1-10 mM concentrations of GSH inside cells, cysteine concentrations are in the range of 0.1-1 mM, approximately an order of magnitude lower than GSH levels. Assuming cysteine and GSH have similar reactivities, the presence of cysteine will introduce an error no more than 10%.

[4] = Reaction kinetics and reversibility of probe with GSH (UV-Vis)
Method: The reaction between TQ Green and GSH is reversible.
The second-order rate constant between TQ Green and GSH is 0.150±0.001M^−1·s^−1. There were no appreciable Abs changes observed after 20 minutes. Following a pause for another 80 minutes to ensure that the equilibrium between TQ Green and GSH was fully established, Applicants added two equivalents of an irreversible Michael acceptor (5,6-dihydro-2H-pyran-2-one) to deplete all the GSH in solution (FIG. 4A).
GSH in PBS was added to a solution of TQ Green in PBS buffer (10 mM, pH 7.4) containing 1% DMSO. The final concentrations of GSH and TQ Green were 10 mM and 16 μM, respectively. The solutions were then monitored continuously with UV-Vis spectrometer (FIGS. 21A-D).

[5] = Log D in octanol-PBS (pH 7.4) biphasic system; assay type: physicochemical; conditions: octanol-PBS pH 7.4, read-out: Log D (pH = 7.4)
Text: To further understand TQ Green distribution between hydrophobic and hydrophilic environments, Applicants measured the Log D values of TQ Green and TQ Green-GSH using an octanol-PBS (pH 7.4) biphasic system (Table 2). […] In addition, Applicants discovered that the absorbance maximum of TQ Green shifts from 480 nm to 455 nm when changing the solvents from PBS to octanol. Applicants hypothesize that if TQ Green is distributed in lipid membranes, the absorbance maximum and fluorescence intensity will change. […] Consistent with the Log D measurements, this experiment also supports the hypothesis that TQ Green accumulates in lipid membranes. Considering the high quantum yield of TQ Green in hydrophobic solvents, lipid enrichment of TQ Green seemingly complicates intracellular GSH quantification. […] However, the Kd′ values may be different under calibration conditions and inside cells, which may introduce a systemic error.

[6] = system: cells; assay: Confocal imaging of probe interacting with cells (cell penetration); assay type: cell-based
Method: FIG. 10 provides confocal images at 488 nm channel of TQ Green (acid form, FIG. 10A), and TQ Green-AM (ester form, FIG. 10B) interacting with cells.
All cell lines used in this study were purchased from American Type Culture Collection (ATCC) and grown in DMEM (Gibco, 11965) media supplemented with 10% FBS and 1% 1003 Pen Strep (Gibco). Cells were cultured under a controlled atmosphere (37° C., 5% CO2). Glass dishes were used for cell culture due to confocal scanning requirements. Cells were treated with TQ Green-AM (20 nM-1 μM with 0.0025-1% DMSO in PBS) for 30 minutes, followed by two washing steps with tryptan blue and PBS prior to imaging. Fluorescent images were acquired with 405 nm laser/430-470 nm filter and 488 nm laser/575-620 nm filter. All the microscope settings were kept consistent in each experiment.

[7] = Equilibrium (dissociation constant) of probe and GSH reaction, UV-Vis/fluorescence; assay type: binding
Method: Applicants also determined Keq between TQ Green and GSH and the relationship of the ratiometric change as a function of GSH concentration. Kd′ is the apparent dissociation constant for the reaction between TQ Green and GSH. The following equation can be derived:
Plotting (R−Rmin)/(Rmax−R) as a function of GSH concentration afforded a superb linear relationship with r^2=0.999 (FIGS. 6-7).
TQ Green was dissolved in PBS buffer (10 mM, pH 7.4) containing 1% DMSO with concentration at 32 μM. GSH was dissolved in the same PBS buffer with concentration from 0-80 mM. Above solutions were mixed at 1:1 ratio. All solutions were protected with nitrogen and stored in glove box to prevent any oxygen entering the solution. Samples of all solutions were taken out at 1, 18, 72, and 144 hours after mixing. UV-Vis and fluorescence were measured for all solutions.
Compounds 3b-d were dissolved in DMSO (10 mM) and 1 eq of 2 M β-mercaptoethanol (BME) was added. Compounds 3a and TQ Green were dissolved in PBS buffer (10 mM, pH 7.4) with 1% DMSO. GSH solution was added to reach a final concentration of 80 mM with compound 3a at 10 μM and TQ Green at 16 μM, respectively. All solutions were then monitored continuously with UV-Vis and fluorimeter for 2 hours (Table 1).

BSA, sequence (P02769 25-607): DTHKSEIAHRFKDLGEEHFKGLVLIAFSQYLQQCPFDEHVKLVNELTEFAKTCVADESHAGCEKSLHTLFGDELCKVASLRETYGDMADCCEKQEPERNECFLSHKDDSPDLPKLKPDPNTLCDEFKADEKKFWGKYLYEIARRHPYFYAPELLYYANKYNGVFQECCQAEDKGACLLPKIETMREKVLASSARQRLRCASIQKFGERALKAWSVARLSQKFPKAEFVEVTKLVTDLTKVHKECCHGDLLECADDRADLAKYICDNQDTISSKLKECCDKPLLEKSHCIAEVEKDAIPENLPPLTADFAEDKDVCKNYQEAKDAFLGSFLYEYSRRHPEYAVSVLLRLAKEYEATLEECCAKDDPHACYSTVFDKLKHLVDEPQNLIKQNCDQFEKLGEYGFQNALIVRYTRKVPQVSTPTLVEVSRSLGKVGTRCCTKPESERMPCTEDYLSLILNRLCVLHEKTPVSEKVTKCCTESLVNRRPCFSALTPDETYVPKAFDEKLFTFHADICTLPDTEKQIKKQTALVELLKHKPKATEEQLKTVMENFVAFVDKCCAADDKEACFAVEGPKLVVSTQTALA

Structure (SMILES): CCN(CC)c1ccc2cc(/C=C/C(=O)c3ccc(C(=O)O)cc3Br)c(=O)oc2c1 [TQ Green]
- Reaction with BSA [1]: little reaction
- solubility [2]: > 500 µM
- Reaction with cysteine [3]: did not observe appreciable reactions
- Time to reach 95% of conversion ([4]; 10 mM GSH in PBS, room temperature, TQ Green 16 μM, probe 3a 10 μM): ~30 min
- Time to establish equilibrium with GSH ([4]; 37° C., intracellular environment, extrapolated): 15 to 30 min
- Second-Order Rate Constant ([4]; TQ Green and GSH): 0.150 ± 0.001 M⁻¹ s⁻¹
- logD [5]: 0.7
- Cell penetration (confocal, 488 nm channel) [6]: trapped in the membrane
- Kd ([7]; deduced from Kd′ and absorption values at 488 nm, read-out: Kd (equilibrium dissociation constant)): 1.6 mM
- Kd ([7]; reaction with various concentration of GSH in water/PBS pH 7.4, based on UV-Vis, read-out: Kd′ observed (apparent) dissociation constant): 14.8 mM
